Laboratory results from patent US12024500B2, “Five-membered ring-substituted pyridazinol compounds and derivatives, preparation methods, herbicidal compositions and applications thereof” (Qingdao Kingagroot Chemical Compound Co., Ltd., priority 2018, dated 2024).

What was measured:
Assay in all cases: Post-emergence weed control test (greenhouse pot, spray)
Type in all cases: in vivo
[1] = system: Amaranthus retroflexus; conditions: 3000 g/ha, 3 weeks after spraying
Description: (§1) The activity level standard of harmful plant destruction (i.e. growth inhibition rate) is as follows: • Level 10: completely dead; • Level 9: above 90% growth inhibition rate; • Level 8: above 80% growth inhibition rate; • Level 7: above 70% growth inhibition rate; • Level 6: above 60% growth inhibition rate; • Level 5: above 50% growth inhibition rate; • Level 4: above 40% growth inhibition rate; • Level 3: above 30% growth inhibition rate; • Level 2: above 20% growth inhibition rate; • Level 1: below 20% growth inhibition rate; • Level 0: no effect.
(§2) The above described growth inhibition rates are fresh weight inhibition rates.
(§3) Experiment of post-emergence test: monocotyledonous and dicotyledonous weed seeds as well as main crop seeds (i.e., wheat, corn, rice, soybean, cotton, oilseed rape, millet and sorghum) were put into a plastic pot loaded with soil, then covered with 0.5-2 cm of soil, and the seeds were allowed to grow in good greenhouse environment. The test plants were treated at 4-5 leaf stage 2-3 weeks after sowing. The test compounds of the invention were dissolved in acetone respectively, then added with Tween-80 and diluted by a certain amount of water to give solutions with certain concentrations. The solution was sprayed to the plants with a sprayer. The plants were cultured for 3 weeks in the greenhouse.

[2] = system: Chenopodiaceae; conditions: 3000 g/ha, 3 weeks after spraying
Description: as §1, §2, §3

[3] = system: Rorippa indica; conditions: 3 weeks after spraying; for weed control effect (activity level, fresh weight growth inhibition rate), Rorippa indica: 3000 g/ha
Description: as §1, §2, §3

[4] = system: Veronica polita; conditions: 3 weeks after spraying; for weed control effect (activity level, fresh weight growth inhibition rate), Veronica polita: 3000 g/ha
Description: as §1, §2, §3

Cn1ccnc1-c1nnc(Cl)cc1O [Compound 3]
weed control effect (activity level, fresh weight growth inhibition rate), Amaranthus retroflexus [1]: 10 (Level 10: completely dead)
weed control effect (activity level, fresh weight growth inhibition rate), Chenopodiaceae [2]: 10 (Level 10: completely dead)
weed control effect (activity level, fresh weight growth inhibition rate), Rorippa indica [3]: 10 (Level 10: completely dead)
weed control effect (activity level, fresh weight growth inhibition rate), Veronica polita [4]: 10 (Level 10: completely dead)

Cn1cncc1-c1nnc(Cl)cc1O [Compound 4]
weed control effect (activity level, fresh weight growth inhibition rate), Amaranthus retroflexus [1]: 10 (Level 10: completely dead)
weed control effect (activity level, fresh weight growth inhibition rate), Chenopodiaceae [2]: 10 (Level 10: completely dead)
weed control effect (activity level, fresh weight growth inhibition rate), Rorippa indica [3]: 10 (Level 10: completely dead)
weed control effect (activity level, fresh weight growth inhibition rate), Veronica polita [4]: 10 (Level 10: completely dead)

Cc1ccc(-c2nnc(Cl)cc2O)s1 [Compound 27]
weed control effect (activity level, fresh weight growth inhibition rate), Amaranthus retroflexus [1]: 10 (Level 10: completely dead)
weed control effect (activity level, fresh weight growth inhibition rate), Chenopodiaceae [2]: 10 (Level 10: completely dead)
weed control effect (activity level, fresh weight growth inhibition rate), Rorippa indica [3]: 10 (Level 10: completely dead)
weed control effect (activity level, fresh weight growth inhibition rate), Veronica polita [4]: 10 (Level 10: completely dead)

N#Cc1ccc(-c2nnc(Cl)cc2O)s1 [Compound 33]
weed control effect (activity level, fresh weight growth inhibition rate), Amaranthus retroflexus [1]: 10 (Level 10: completely dead)
weed control effect (activity level, fresh weight growth inhibition rate), Chenopodiaceae [2]: 10 (Level 10: completely dead)
weed control effect (activity level), Rorippa indica, comparison experiment ([3]; 300 g/ha): 10
weed control effect (activity level, fresh weight growth inhibition rate), Rorippa indica [3]: 10 (Level 10: completely dead)
weed control effect (activity level), Veronica polita, comparison experiment ([4]; 300 g/ha): 10
weed control effect (activity level, fresh weight growth inhibition rate), Veronica polita [4]: 10 (Level 10: completely dead)

CCn1nc(C2CC2)cc1-c1nnc(Cl)cc1O [Compound 44]
weed control effect (activity level, fresh weight growth inhibition rate), Amaranthus retroflexus [1]: 10 (Level 10: completely dead)
weed control effect (activity level, fresh weight growth inhibition rate), Chenopodiaceae [2]: 10 (Level 10: completely dead)
weed control effect (activity level, fresh weight growth inhibition rate), Rorippa indica [3]: 10 (Level 10: completely dead)
weed control effect (activity level, fresh weight growth inhibition rate), Veronica polita [4]: 10 (Level 10: completely dead)

Cn1nc(C2CC2)cc1-c1nnc(C(F)(F)C(F)(F)F)cc1O [Compound 45]
weed control effect (activity level, fresh weight growth inhibition rate), Amaranthus retroflexus [1]: 10 (Level 10: completely dead)
weed control effect (activity level, fresh weight growth inhibition rate), Chenopodiaceae [2]: 10 (Level 10: completely dead)
weed control effect (activity level, fresh weight growth inhibition rate), Rorippa indica [3]: 10 (Level 10: completely dead)
weed control effect (activity level, fresh weight growth inhibition rate), Veronica polita [4]: 10 (Level 10: completely dead)

Cn1nc(Cl)cc1-c1nnc(Cl)cc1O [Compound 48]
weed control effect (activity level, fresh weight growth inhibition rate), Amaranthus retroflexus [1]: 10 (Level 10: completely dead)
weed control effect (activity level, fresh weight growth inhibition rate), Chenopodiaceae [2]: 10 (Level 10: completely dead)
weed control effect (activity level, fresh weight growth inhibition rate), Rorippa indica [3]: 10 (Level 10: completely dead)
weed control effect (activity level, fresh weight growth inhibition rate), Veronica polita [4]: 10 (Level 10: completely dead)

Oc1cc(Cl)nnc1-c1ccnn1Cc1ccccc1 [Compound 54]
weed control effect (activity level, fresh weight growth inhibition rate), Amaranthus retroflexus [1]: 10 (Level 10: completely dead)
weed control effect (activity level, fresh weight growth inhibition rate), Chenopodiaceae [2]: 10 (Level 10: completely dead)
weed control effect (activity level, fresh weight growth inhibition rate), Rorippa indica [3]: 10 (Level 10: completely dead)
weed control effect (activity level, fresh weight growth inhibition rate), Veronica polita [4]: 10 (Level 10: completely dead)

Cn1nc(F)cc1-c1nnc(Cl)cc1O [Compound 56]
weed control effect (activity level, fresh weight growth inhibition rate), Amaranthus retroflexus [1]: 10 (Level 10: completely dead)
weed control effect (activity level, fresh weight growth inhibition rate), Chenopodiaceae [2]: 10 (Level 10: completely dead)
weed control effect (activity level, fresh weight growth inhibition rate), Rorippa indica [3]: 10 (Level 10: completely dead)
weed control effect (activity level, fresh weight growth inhibition rate), Veronica polita [4]: 10 (Level 10: completely dead)

Cn1nc(C2CC2)cc1-c1nnc(Cl)cc1O [Compound 61]
weed control effect (activity level, fresh weight growth inhibition rate), Amaranthus retroflexus [1]: 10 (Level 10: completely dead)
weed control effect (activity level, fresh weight growth inhibition rate), Chenopodiaceae [2]: 10 (Level 10: completely dead)
weed control effect (activity level, fresh weight growth inhibition rate), Rorippa indica [3]: 10 (Level 10: completely dead)
weed control effect (activity level, fresh weight growth inhibition rate), Veronica polita [4]: 10 (Level 10: completely dead)

Cn1nc(C#N)cc1-c1nnc(Cl)cc1O [Compound 71]
weed control effect (activity level, fresh weight growth inhibition rate), Amaranthus retroflexus [1]: 10 (Level 10: completely dead)
weed control effect (activity level, fresh weight growth inhibition rate), Chenopodiaceae [2]: 10 (Level 10: completely dead)
weed control effect (activity level, fresh weight growth inhibition rate), Rorippa indica [3]: 10 (Level 10: completely dead)
weed control effect (activity level, fresh weight growth inhibition rate), Veronica polita [4]: 10 (Level 10: completely dead)

Cn1nc([N+](=O)[O-])cc1-c1nnc(Cl)cc1O [Compound 72]
weed control effect (activity level, fresh weight growth inhibition rate), Amaranthus retroflexus [1]: 10 (Level 10: completely dead)
weed control effect (activity level, fresh weight growth inhibition rate), Chenopodiaceae [2]: 10 (Level 10: completely dead)
weed control effect (activity level, fresh weight growth inhibition rate), Rorippa indica [3]: 10 (Level 10: completely dead)
weed control effect (activity level, fresh weight growth inhibition rate), Veronica polita [4]: 10 (Level 10: completely dead)

Cn1nc(-c2ccccc2)cc1-c1nnc(Cl)cc1O [Compound 73]
weed control effect (activity level, fresh weight growth inhibition rate), Amaranthus retroflexus [1]: 10 (Level 10: completely dead)
weed control effect (activity level, fresh weight growth inhibition rate), Chenopodiaceae [2]: 10 (Level 10: completely dead)
weed control effect (activity level, fresh weight growth inhibition rate), Rorippa indica [3]: 10 (Level 10: completely dead)
weed control effect (activity level, fresh weight growth inhibition rate), Veronica polita [4]: 10 (Level 10: completely dead)

Cn1nc(C(F)F)cc1-c1nnc(Cl)cc1O [Compound 74]
weed control effect (activity level, fresh weight growth inhibition rate), Amaranthus retroflexus [1]: 10 (Level 10: completely dead)
weed control effect (activity level, fresh weight growth inhibition rate), Chenopodiaceae [2]: 10 (Level 10: completely dead)
weed control effect (activity level, fresh weight growth inhibition rate), Rorippa indica [3]: 10 (Level 10: completely dead)
weed control effect (activity level, fresh weight growth inhibition rate), Veronica polita [4]: 10 (Level 10: completely dead)

Cn1nc(CC(F)(F)F)cc1-c1nnc(Cl)cc1O [Compound 75]
weed control effect (activity level, fresh weight growth inhibition rate), Amaranthus retroflexus [1]: 10 (Level 10: completely dead)
weed control effect (activity level, fresh weight growth inhibition rate), Chenopodiaceae [2]: 10 (Level 10: completely dead)
weed control effect (activity level, fresh weight growth inhibition rate), Rorippa indica [3]: 10 (Level 10: completely dead)
weed control effect (activity level, fresh weight growth inhibition rate), Veronica polita [4]: 10 (Level 10: completely dead)

Cn1ncc(F)c1-c1nnc(Cl)cc1O [Compound 76]
weed control effect (activity level, fresh weight growth inhibition rate), Amaranthus retroflexus [1]: 10 (Level 10: completely dead)
weed control effect (activity level, fresh weight growth inhibition rate), Chenopodiaceae [2]: 10 (Level 10: completely dead)
weed control effect (activity level, fresh weight growth inhibition rate), Rorippa indica [3]: 10 (Level 10: completely dead)
weed control effect (activity level, fresh weight growth inhibition rate), Veronica polita [4]: 10 (Level 10: completely dead)

Cn1ncc(Cl)c1-c1nnc(Cl)cc1O [Compound 77]
weed control effect (activity level, fresh weight growth inhibition rate), Amaranthus retroflexus [1]: 10 (Level 10: completely dead)
weed control effect (activity level, fresh weight growth inhibition rate), Chenopodiaceae [2]: 10 (Level 10: completely dead)
weed control effect (activity level, fresh weight growth inhibition rate), Rorippa indica [3]: 10 (Level 10: completely dead)
weed control effect (activity level, fresh weight growth inhibition rate), Veronica polita [4]: 10 (Level 10: completely dead)

Cn1ncc(Br)c1-c1nnc(Cl)cc1O [Compound 78]
weed control effect (activity level, fresh weight growth inhibition rate), Amaranthus retroflexus [1]: 10 (Level 10: completely dead)
weed control effect (activity level, fresh weight growth inhibition rate), Chenopodiaceae [2]: 10 (Level 10: completely dead)
weed control effect (activity level, fresh weight growth inhibition rate), Rorippa indica [3]: 10 (Level 10: completely dead)
weed control effect (activity level, fresh weight growth inhibition rate), Veronica polita [4]: 10 (Level 10: completely dead)

Cn1ncc(I)c1-c1nnc(Cl)cc1O [Compound 79]
weed control effect (activity level, fresh weight growth inhibition rate), Amaranthus retroflexus [1]: 10 (Level 10: completely dead)
weed control effect (activity level, fresh weight growth inhibition rate), Chenopodiaceae [2]: 10 (Level 10: completely dead)
weed control effect (activity level, fresh weight growth inhibition rate), Rorippa indica [3]: 10 (Level 10: completely dead)
weed control effect (activity level, fresh weight growth inhibition rate), Veronica polita [4]: 10 (Level 10: completely dead)

Cc1cnn(C)c1-c1nnc(Cl)cc1O [Compound 80]
weed control effect (activity level, fresh weight growth inhibition rate), Amaranthus retroflexus [1]: 10 (Level 10: completely dead)
weed control effect (activity level, fresh weight growth inhibition rate), Chenopodiaceae [2]: 10 (Level 10: completely dead)
weed control effect (activity level, fresh weight growth inhibition rate), Rorippa indica [3]: 10 (Level 10: completely dead)
weed control effect (activity level, fresh weight growth inhibition rate), Veronica polita [4]: 10 (Level 10: completely dead)

CCc1cnn(C)c1-c1nnc(Cl)cc1O [Compound 81]
weed control effect (activity level, fresh weight growth inhibition rate), Amaranthus retroflexus [1]: 10 (Level 10: completely dead)
weed control effect (activity level, fresh weight growth inhibition rate), Chenopodiaceae [2]: 10 (Level 10: completely dead)
weed control effect (activity level, fresh weight growth inhibition rate), Rorippa indica [3]: 10 (Level 10: completely dead)
weed control effect (activity level, fresh weight growth inhibition rate), Veronica polita [4]: 10 (Level 10: completely dead)

Cn1ncc(C2CC2)c1-c1nnc(Cl)cc1O [Compound 82]
weed control effect (activity level, fresh weight growth inhibition rate), Amaranthus retroflexus [1]: 10 (Level 10: completely dead)
weed control effect (activity level, fresh weight growth inhibition rate), Chenopodiaceae [2]: 10 (Level 10: completely dead)
weed control effect (activity level, fresh weight growth inhibition rate), Rorippa indica [3]: 10 (Level 10: completely dead)
weed control effect (activity level, fresh weight growth inhibition rate), Veronica polita [4]: 10 (Level 10: completely dead)
